The conditions of data set [1]: Liquid; for mass density: 273.15 K, 101.33 kPa; for Normal boiling temperature: Ebulliometric method (Recirculating still).
Data set [2] in a line: refractive index (Na D-line) (dimensionless). The conditions noted are these: 273.15 K; 101.33 kPa; Liquid; Standard Abbe refractometry.

The structures appear in SMILES notation. ± gives the expanded uncertainty stated by the source.

As a reminder, the mass density is mass per unit of volume. As usually defined, the refractive index is the speed of light in vacuum divided by its phase velocity in the sample. For the compound `CCC(=O)O` [propanoic acid], in data set [1], the mass density is 992.7 ± 0.4 kg/m3 and the Normal boiling temperature amounted to 141.0 ± 0.02 °C. Also, the refractive index in data set [2] is listed as 1.3811 ± 0.0004.

`CCCCC(CC)CO` (stereo not given) [2-ethyl-1-hexanol]: in data set [1], the mass density amounted to 832.3 ± 1.2 kg/m3 and the Normal boiling temperature turned out to be 185.1 ± 0.02 °C.

(Values after the NIST ThermoML archive (doi:10.1016/j.jct.2008.01.001).)
